# Data published in PMC12584665, “In vitro and in vivo efficacy of vancomycin against Elizabethkingia species and the impact of increased vancomycin MICs” (Microbiology Spectrum, 2025).
# System: Elizabethkingia anophelis
# Experiment: Galleria mellonella (wax moth) infection survival model
# Assay type: in vivo
# Method: In vivo efficacy was assessed by wax moth (Galleria mellonella), murine pneumonia, and murine thigh infection models following the protocols of our previous study ([2]). The Animal Ethics Committee of Taiwan’s National Health Research Institutes approved the murine pneumonia and thigh infection models.
# G. mellonella was reared at the National Health Research Institutes of Taiwan. Caterpillars in the final instar larval stage (weight ca. 250 mg) were used. […] A 10 µL aliquot of E. anophelis at the predetermined lethal dose was injected into the hemocoel of each caterpillar via the last left proleg. Antibiotics were administered once into another proleg at the indicated time points; vancomycin (5, 10, or 20 mg/kg, 2 h post-inoculation); other glycopeptides (teicoplanin, 10 mg/kg, 30 min post-inoculation; dalbavancin, 8.75 mg/kg, 2 h post-inoculation; oritavancin, 15 mg/kg, 1 h post-inoculation) ([11][–][13]); or daptomycin (10 mg/kg, 2 h post-inoculation) ([13]). Each treatment group contained 6–8 caterpillars. A control group injected with sterile PBS was included to monitor for trauma-related mortality. Caterpillars were incubated at 37°C, and survival was recorded twice daily for 72 h.
smiles,measurement,setting,value
CN[C@H](CC(C)C)C(=O)N[C@H]1C(=O)N[C@@H](CC(N)=O)C(=O)N[C@H]2C(=O)N[C@H]3C(=O)N[C@H](C(=O)N[C@H](C(=O)O)c4cc(O)cc(O)c4-c4cc3ccc4O)[C@H](O)c3ccc(c(Cl)c3)Oc3cc2cc(c3O[C@@H]2O[C@H](CO)[C@@H](O)[C@H](O)[C@H]2O[C@H]2C[C@](C)(N)[C@H](O)[C@H](C)O2)Oc2ccc(cc2Cl)[C@H]1O [Vancomycin],survival of infected wax moths,"10 mg/kg once, 2 h post-inoculation, five E. anophelis isolates, 72 h, 37°C, 6-8 caterpillars per group",improved the survival
same,improvement of larval survival,"10 mg/kg, infection by 2008S01-229-VAN-R compared to 2008S01-229",hampered
same,dose dependence of survival of infected wax moths,"5, 10 and 20 mg/kg once, 2 h post-inoculation, two clinical isolates",dose-dependent effect
